Several values for one entry are separate records, joined by “and”; a condition that tells them apart may be missing. Identical values can stand only once. Like-named read-outs stand apart in the source and are kept apart here.
Experiments:
[1] = biological target: T1, BSA (bovine serum albumin) (Bos taurus, UniProt P02769); assay: Protein binding by ultrafiltration in 2% BSA Krebs buffer; format: in vitro ADME; settings: 2% BSA Krebs-Henseleit buffer pH 7.4, 37° C.; slope of Scatchard plot
T1 construct: BSA (bovine serum albumin, fraction V, Sigma); purchased Sigma; host or cells: bovine serum (fraction V)
T1 sequence (P02769 25-607): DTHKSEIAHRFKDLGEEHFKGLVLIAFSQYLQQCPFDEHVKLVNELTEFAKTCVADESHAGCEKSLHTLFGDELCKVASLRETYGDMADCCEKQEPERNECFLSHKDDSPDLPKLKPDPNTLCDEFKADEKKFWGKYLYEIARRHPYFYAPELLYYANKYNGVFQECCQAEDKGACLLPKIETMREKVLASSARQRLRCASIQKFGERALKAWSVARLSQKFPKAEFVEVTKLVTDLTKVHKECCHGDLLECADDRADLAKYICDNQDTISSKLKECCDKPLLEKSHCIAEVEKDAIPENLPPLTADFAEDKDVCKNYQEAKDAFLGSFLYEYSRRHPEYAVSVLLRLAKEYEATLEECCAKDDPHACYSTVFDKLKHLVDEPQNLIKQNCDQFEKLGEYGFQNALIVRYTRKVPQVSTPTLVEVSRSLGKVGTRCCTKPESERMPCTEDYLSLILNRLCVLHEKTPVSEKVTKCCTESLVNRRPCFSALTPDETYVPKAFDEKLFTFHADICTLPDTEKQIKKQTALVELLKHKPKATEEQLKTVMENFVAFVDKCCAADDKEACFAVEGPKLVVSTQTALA
Procedure: These experiments were carried out in Krebs-Henseleit buffer containing 2% w/v BSA (pH 7.4) and incubated at 37° C. for 30 minutes.
A known concentration of the ethanolic (≲1%) aspirin analogue or diflunisal ester stock solution was added to the 2% BSA Krebs solution to make final concentrations of 125 μM, 250 μM and 500 μM.
The unbound fraction (fu) of parent drug and its hydrolysis product were investigated using ultra-filtration: A 1.0 mL aliquot sample (in triplicate) was placed in a ultrafiltration tube (MPS-1, micro-partition system, Amicon) and centrifuged at 3000 g for 10 minutes. The ultra-filtrate was then assayed for parent drug and its hydrolysis product by HPLC.
To eliminate possible errors caused by hydrolysis, identical samples were placed in normal tubes and subjected to the same procedure. This control group (also in triplicate) was used to adjust for the percentage of hydrolysis in the ultra-filtrate under the experimental conditions.
The fu was determined as the ratio of the free concentration to total concentration of solutes. The binding constant (K) was determined from the slope of a Scatchard plot using following equation:
[Db]/[D]=−K[Db]vK[Pt] (3)
where [Db] is the concentration of bound drug, [D] is the concentration of drug, [Pt] is the concentration of total protein, and v is the number of independent binding sites available. This equation is plotted as the ratio [Db]/[D] versus [Db] and in this way the binding constant (K) is determined from the slope while vK[Pt] is determined from the intercept (Martin, 1983).

[2] = Intrinsic (maximum) solubility in water at pH 1.5; format: physicochemical; settings: 25 °C, pH 1.5, simulated gastric fluid
Procedure: The pH conditions were chosen to ensure that the solubility of the unionised species was estimated. […] Lea & Febiger/Philadelphia. […] […] The solvent (9.9 mL) was then added to the test tube. […] The test tube was sonicated for 15 minutes and centrifuged for 10 minutes (3000 g at 25° C.). An aliquot was filtered (Minisart 0.45 μm filter, Satorius) and diluted with HPLC mobile phase, then assayed. The tube was stored carefully in a 25° C. water bath after sampling and the remaining suspension was again sonicated and the process repeated 7 times at four hourly intervals. In these assays, standard curves were prepared by directly dissolving the esters in mobile phase. Concentrations for standard curves ranged from 1-50 μg/mL for all compounds. Furthermore, a manual injector (Waters Model U6K) was used (20 μL sample loop) which ensured that 20 μL was consistently injected onto the column and precluded the need for an internal standard.

[3] = tested on: human platelet rich plasma; assay: Platelet aggregation induced by arachidonic acid; format: cell-based; settings: compound 600 µM, 37° C., arachidonic acid 200 µM
Procedure: Platelet aggregation studies were carried out using a single channel Lumiaggregometer (Chrono-Log Company, Haverton, Pa.) at 37° C. using human platelet-rich and platelet-poor plasma. Platelet-rich plasma (PRP) with a platelet concentration of […] (measured with a Coulter counter) was prepared by centrifuging 3.8% citrated […] (1:9) at 1,500 rpm using a (Beckman) benchtop centrifuge at room temperature for 15 minutes. Platelet-poor plasma (PPP) was prepared by further centrifuging residual blood from platelet-rich plasma at 3,000 rpm for 30 minutes. Platelet-poor plasma was also confirmed b y Coulter counting for platelet content.
Platelet aggregation studies were preceded by pipetting 0.4 mL platelet-rich plasma into a stirred aggregometer tube and calibrate to 90% of recorder. Platelet-poor plasma was set to calibrate at 10% of recorder. Platelet aggregation was initiated by the addition of a arachidonic acid (Sigma) or ADP (Sigma).
10 mM solutions of each compound (TABLE 6) were prepared in 1 mL of normal saline solution (containing 4% BSA) before use. An aliquot (400 μL) of platelet-rich plasma was pipetted into a stirred aggregometer tube at 37° C. and 30 μL of test sample added simultaneously. This mixture was preincubated for varying period (3 to 45 minutes), then arachidonic acid (AA) was added (final conc.=200 μM) to initiate platelet aggregation. If no aggregation occurred, 20 μM ADP was added to confirm the vitality of the platelets (if the platelets are vital, ADP will induce this AA-test sample-plasma mixture to aggregate). This procedure is necessary to investigate whether the non-aggregation phenomenon is due to drug inhibition or simply due to inviable platelets (unable to respond to AA). The degree of aggregation was measure by calculating the area under the turbidimetric response curve (AUC).

[4] = In vitro non-enzymatic hydrolysis in Krebs-Henseleit buffer; format: physicochemical; settings: for Hydrolysis rate constant (k): pH 7.4, 25° C., n=5; for half-life: pH 7.4
Procedure: These experiments were carried out both in Krebs-Henseleit buffer containing either no protein or 2% w/v BSA (bovine serum albumin, fraction V, Sigma) at pH 7.4 and 25±1° C.
Solutions of the derivatives in Krebs buffer (10 mL) was prepared in siliconised glass tubes. Each solution was sonicated for 5 minutes and centrifuged for 5 minutes (3000 g) at 25° C. to ensure maximum dissolution and to sediment any undissolved precipitate. About 7.5 mL of the supernatant was then transferred to a clean siliconised test tube and a 100 μL aliquot was removed and assayed. […] The rate of non-enzymatic hydrolysis (k) for each derivative was then estimated using the following equation: […]
where C1 is the concentration of the ester at any time (t), and C0 is the concentration of the ester at time zero. The half-life (t½) was determined using the formula: […]

Protein binding constant (K) [1]: 13978 L/mol | solubility [2]: 2 µg/mL and 8 µM | Hydrolysis rate constant (k) ([4]; Krebs-Henseleit buffer 0% BSA, U = Undetectable): 0.0051 ± 0.0031 hour^1 | Hydrolysis rate constant (k) ([4]; Krebs-Henseleit buffer 2% BSA): 0.0010 ± 0.0004 hour^1 | half-life ([4]; Krebs-Henseleit buffer with 2% w/v BSA, 2% BSA Krebs buffer, read-out: Half-life (converted)): ~30 days | half-life ([4]; bovine, Krebs-Henseleit buffer with 2% w/v BSA, read-out: Half life (t1/2) (converted)): 28.9 days | half-life ([4]; protein-free Krebs-Henseleit buffer, Krebs-Henseleit buffer 0% BSA, first half life, t1/2=0.693/k, U = Undetectable, read-out: Half life (t1/2) (converted)): 5.66 days
SMILES: CCCCCCCC(=O)Oc1ccccc1C(=O)O [Compound C8SA, n-octanoylsalicylic acid]
Platelet Aggregation (% of control) ([3]; preincubation 3 minutes): 95.4 ± 2.1 % of control | Platelet Aggregation (% of control) ([3]; preincubation 5 minutes): 92.4 ± 0.1 % of control | Platelet Aggregation (% of control) ([3]; preincubation 8 minutes): 87.3 ± 3.3 % of control | Platelet Aggregation (% of control) ([3]; preincubation 10 minutes): 67.5 ± 2.7 % of control | Platelet Aggregation (% of control) ([3]; preincubation 12 minutes): 27.3 ± 0.2 % of control | Platelet Aggregation (% of control) ([3]; preincubation 15 minutes): 0 % of control | Platelet Aggregation (% of control) ([3]; preincubation 20 minutes): 0 % of control | Platelet Aggregation (% of control) ([3]; preincubation 25 minutes): 0 % of control | Platelet Aggregation (% of control) ([3]; preincubation 45 minutes): 0 % of control
